Test results from PMC9019904, “AD Informer Set: Chemical tools to facilitate Alzheimer's disease drug discovery” (Alzheimer's & Dementia : Translational Research & Clinical …, 2022).

Tests used:
[1] = system: BV2 (mouse microglia) cell line; experiment: pHrodo-myelin phagocytosis/cell viability high content imaging assay: viability (cell count, nuclear area, nuclear intensity); settings: for 1. Cell count (% control) / 2. Nuclear Area (% Control) / 3. Nuclear DNA Intensity (% control): 48 hours treatment
Summary of the method: (§1)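 Cells adhered overnight, then were exposed to compounds at a single 10 μM for 48 h in total, with pHrodo-myelin added for the last 20 h. High-content imaging gave cell count per well as the main viability measure plus mean nuclear intensity per cell. Duplicate wells were averaged and expressed as % of untreated control.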

[2] = system: HMC3 (human microglia) cell line; experiment: as above; settings: for 1. Cell count (% control) / 2. Nuclear Area (% Control) / 3. Nuclear DNA Intensity (% control): 48 hours treatment
Summary of the method: as §1

[3] = system: BV2 (mouse microglia) cell line; experiment: pHrodo-myelin phagocytosis/cell viability high content imaging assay: phagocytosis signal; type: cell-based
Summary of the method: (§2)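 Mouse BV2 and human HMC3 microglia given pHrodo-myelin; phagocytosis and cell viability imaged together by high content imaging about 22 hours after myelin addition. Three measurements extracted, including intensity increase and decrease marking early and later apoptosis.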

[4] = system: HMC3 (human microglia) cell line; experiment: as above; type: cell-based
Summary of the method: as §2

[5] = BV2, compound 10 uM, pHrodo-myelin
[6] = HMC3, compound 10 uM, pHrodo-myelin
[7] = BV2 cells, 10 uM compound, 48 hours treatment, pHrodo-myelin final 20 hours
[8] = HMC3 cells, 10 uM compound, 48 hours treatment, pHrodo-myelin final 20 hours

| SMILES | Mouse microglial cytotoxicity at 10 μM (<70% control) ([1]; 10 μM, BV2) | Human microglial cytotoxicity at 10 μM (<70% control) ([2]; 10 μM, HMC3) | Stimulation of mouse microglial phagocytosis at 10 μM (>150% control) ([3]; 10 μM, BV2) | Inhibition of human microglial phagocytosis at 10 μM (<70% control) ([4]; 10 μM, HMC3) | 1. Cell count (% control) ([1]; BV2, compound 10 uM) | 2. Nuclear Area (% Control) ([1]; BV2, compound 10 uM) | 3. Nuclear DNA Intensity (% control) ([1]; BV2, compound 10 uM) | 1. Cell count (% control) ([2]; HMC3, compound 10 uM) | 2. Nuclear Area (% Control) ([2]; HMC3, compound 10 uM) | 3. Nuclear DNA Intensity (% control) ([2]; HMC3, compound 10 uM) | 4. Phagocytosis (% control) [3, 5] [% control] | 4. Phagocytosis (% control) [4, 6] [% control] | 1. Cell count (% control) ([1]; BV2 cells, 10 uM compound) | 2. Nuclear Area (% Control) ([1]; BV2 cells, 10 uM compound) | 3. Nuclear DNA Intensity (% control) ([1]; BV2 cells, 10 uM compound) | 1. Cell count (% control) ([2]; HMC3 cells, 10 uM compound) | 2. Nuclear Area (% Control) ([2]; HMC3 cells, 10 uM compound) | 3. Nuclear DNA Intensity (% control) ([2]; HMC3 cells, 10 uM compound) | 4. Phagocytosis (% control) [3, 7] [% control] | 4. Phagocytosis (% control) [4, 8] [% control] |
| --- | --- | --- | --- | --- | --- | --- | --- | --- | --- | --- | --- | --- | --- | --- | --- | --- | --- | --- | --- | --- |
| C=C1C(=O)[C@]23[C@H](O)[C@H]1CC[C@H]2[C@@]12CO[C@]3(O)[C@@H](O)[C@@H]1C(C)(C)CC[C@@H]2O [Oridonin] | Y (The compound was found to be cytotoxic (cell count threshold: <70% control) when murine immortalized microglial cells were dosed at 10 μM (Y: yes)) | Y (The compound was found to be cytotoxic (cell count threshold: <70% control) when human immortalized microglial cells were dosed at 10 μM (Y: yes)) | Y (The compound was found to stimulate phagocytosis (response threshold: >150% control) when murine immortalized microglial cells were dosed at 10 μM (Y: yes)) | Y (The compound was found to inhibit phagocytosis (response threshold: <70% control) when human immortalized microglial cells were dosed at 10 μM (Y: yes)) |  |  |  |  |  |  |  |  |  |  |  |  |  |  |  |  |
| Nc1ncnc2c1nc(Br)n2[C@@H]1O[C@@H]2COP(=O)([O-])O[C@H]2[C@H]1O.[Na+] [UNC10302698A] |  |  |  |  | 97.0 | 105.8 | 98.8 | 137.9 | 97.3 | 96.1 | 164.5 | 80.6 |  |  |  |  |  |  |  |  |
| Cc1cccc(-c2nn3c(c2-c2ccnc4ccc(C(N)=O)cc24)CCC3)n1 [UNC10245080A] |  |  |  |  |  |  |  |  |  |  |  |  | 99.1 | 108.1 | 97.4 | 126.0 | 104.6 | 85.7 | 174.0 | 85.1 |
| O=C(NC1CCNCC1)c1[nH]ncc1NC(=O)c1c(Cl)cccc1Cl [UNC10302839A] |  |  |  |  | 4.8 | 121.7 | 82.5 | 70.4 | 131.0 | 97.4 | 18.2 | 183.7 |  |  |  |  |  |  |  |  |
| COc1cc([C@@H]2c3cc4c(cc3[C@H](O)[C@H]3COC(=O)[C@H]23)OCO4)cc(OC)c1OC [UNC10100984A] |  |  |  |  |  |  |  |  |  |  |  |  | 10.9 | 112.2 | 112.7 | 62.5 | 67.2 | 227.6 | 197.0 | 32.6 |
| Cc1cc(C)nc(NS(=O)(=O)c2ccc(NC(=O)NC(=O)c3ccc(Cl)cc3Cl)cc2)n1 [UNC10303168A] |  |  |  |  | 124.0 | 99.5 | 104.3 | 129.3 | 101.5 | 94.7 | 118.2 | 88.1 |  |  |  |  |  |  |  |  |
| Cc1cc2c(cc1-c1cc(/C=C\C(=O)O)ccc1O)C(C)(C)CCC2(C)C [UNC10302903A] |  |  |  |  |  |  |  |  |  |  |  |  | 102.7 | 107.7 | 96.7 | 106.9 | 99.9 | 95.8 | 143.5 | 96.9 |
| Cc1cc2c(cc1C(=O)c1ccc(C(=O)O)cc1)C(C)(C)CCC2(C)C [UNC10302892A] |  |  |  |  |  |  |  |  |  |  |  |  | 95.3 | 107.4 | 95.0 | 88.9 | 102.9 | 97.5 | 90.2 | 75.7 |
| CCOC(=O)N1CCC(Nc2c(NCCN3CCN(c4cccc(C(F)(F)F)c4)CC3)c(=O)c2=O)CC1 [UNC10302706A] |  |  |  |  | 117.8 | 102.0 | 95.9 | 111.8 | 102.2 | 96.9 | 143.2 | 75.0 |  |  |  |  |  |  |  |  |
| CC[C@H](Nc1ncnc2[nH]cnc12)c1nc2cccc(F)c2c(=O)n1-c1ccccc1 [Idelalisib] |  |  |  |  | 17.2 | 138.0 | 108.4 | 61.4 | 105.8 | 124.0 | 107.9 | 5.6 |  |  |  |  |  |  |  |  |
| COc1ccc2nc([S+]([O-])Cc3ncc(C)c(OC)c3C)nc-2[nH]1 (stereo not drawn) [UNC10303106A] |  |  |  |  |  |  |  |  |  |  |  |  | 113.2 | 104.8 | 103.4 | 100.3 | 105.8 | 97.2 | 116.6 | 91.6 |
| CCCCc1nc(Cl)c(CO)n1Cc1ccc(-c2ccccc2-c2nn[nH]n2)cc1 [UNC10121212D] |  |  |  |  |  |  |  |  |  |  |  |  | 142.4 | 103.1 | 105.8 | 117.8 | 104.2 | 96.6 | 120.9 | 86.3 |
| O=c1oc2ccccc2cc1-c1cn2cc(Cc3ccc(F)cc3)sc2n1 [UNC10302680A] |  |  |  |  |  |  |  |  |  |  |  |  | 59.2 | 99.6 | 132.0 | 107.8 | 96.3 | 103.3 | 114.2 | 72.6 |
| Cc1ccccc1C(=O)Nc1ccc(C(=O)N2CCCC(O)c3cc(Cl)ccc32)c(C)c1 (stereo not drawn) [UNC10302860A] |  |  |  |  | 118.5 | 108.9 | 107.5 | 130.2 | 105.3 | 93.3 | 197.1 | 100.1 |  |  |  |  |  |  |  |  |
| C[C@H](N/C(=N\c1cccc2ncccc12)NC#N)c1ccccc1 [UNC10302855A] |  |  |  |  |  |  |  |  |  |  |  |  | 130.8 | 103.4 | 103.1 | 114.9 | 101.2 | 97.7 | 124.5 | 63.4 |
| CN(C)C/C=C/C(=O)Nc1cc2c(Nc3ccc(F)c(Cl)c3)ncnc2cc1O[C@H]1CCOC1 [UNC10302894A] |  |  |  |  |  |  |  |  |  |  |  |  |  | 107.0 | 89.4 | 95.3 | 52.1 | 246.1 | 41.4 | 43.8 |
| CN1C[C@H](Nc2cnn(C)c(=O)c2Br)C[C@H](c2ccccc2)C1 [UNC10303157A] |  |  |  |  | 85.0 | 105.0 | 100.7 | 86.8 | 97.5 | 100.9 | 145.8 | 103.4 |  |  |  |  |  |  |  |  |
| CCS(=O)(=O)N1CCN(c2ccc(Nc3ncc(C(N)=O)c(NC4CC4)n3)cc2)CC1 [UNC10245084A] |  |  |  |  | 6.9 | 115.7 | 50.0 | 54.5 | 136.2 | 128.1 | 2.3 | 110.4 |  |  |  |  |  |  |  |  |
| OC(c1cc(C23CC4CC(CC(C4)C2)C3)nc2c(Cl)cc(Cl)cc12)C1CCCCN1 (stereo not drawn) [UNC10302897A] |  |  |  |  |  |  |  |  |  |  |  |  | 63.8 | 105.3 | 99.1 | 110.1 | 94.7 | 100.9 | 122.3 | 67.0 |
